Experimental data reported in the NIST ThermoML archive (doi:10.1016/j.tca.2014.11.009).

Experiment: xn = mol fraction of the nth substance listed
Details: 100 kPa, Liquid; for speed of sound: Frequency=3 MHz, Sing-around technique in a fixed-path interferometer; for mass density: Vibrating tube method

O=Cc1ccco1 [2-furaldehyde] + CCC(C)O
Details	mass density, 283.15 K [kg/m3]	mass density, 293.15 K [kg/m3]	mass density, 303.15 K [kg/m3]	mass density, 313.15 K [kg/m3]	speed of sound, 283.15 K [m/s]	speed of sound, 293.15 K [m/s]	speed of sound, 303.15 K [m/s]	speed of sound, 313.15 K [m/s]
x1 = 0.0501	831.27	822.97	814.4	805.5	1279.1	1242.7	1206.1	1169.4
x1 = 0.1001	847.35	838.83	830.06	820.99	1289.1	1252.7	1216.1	1179.5
x1 = 0.1507	863.92	855.21	846.24	837.01	1299.3	1263.1	1226.6	1190
x1 = 0.2001	880.27	871.37	862.24	852.86	1309.5	1273.3	1236.9	1200.5
x1 = 0.3001	913.96	904.72	895.3	885.68	1330.4	1294.4	1258.3	1222.1
x1 = 0.3501	931.13	921.74	912.18	902.46	1341.2	1305.4	1269.3	1233.2
x1 = 0.4001	948.49	938.98	929.33	919.51	1352	1316.4	1280.4	1244.1
x1 = 0.4501	966.01	956.37	946.59	936.66	1363.4	1327.8	1291.9	1256
x1 = 0.5	983.65	973.9	964.03	954.03	1375.1	1339.4	1303.5	1267.6
x1 = 0.55	1001.41	991.58	981.69	971.7	1387.3	1351.4	1315.5	1279.6
x1 = 0.6	1019.4	1009.48	999.51	989.44	1399.4	1363.4	1327.4	1291.5
x1 = 0.6501	1037.63	1027.6	1017.53	1007.37	1411.8	1375.7	1339.6	1303.6
x1 = 0.8001	1093.43	1083.14	1072.78	1062.25	1448.5	1412	1375.6	1339.5
x1 = 0.8999	1131.48	1121	1110.45	1099.81	1472.1	1435.7	1399.2	1363.1
x1 = 1	1169.93	1159.33	1148.69	1138.01	1495.4	1458.8	1422.5	1386.5

O=Cc1ccco1 [2-furaldehyde] + CCCCO
Details	mass density, 283.15 K [kg/m3]	mass density, 293.15 K [kg/m3]	mass density, 303.15 K [kg/m3]	mass density, 313.15 K [kg/m3]	speed of sound, 283.15 K [m/s]	speed of sound, 293.15 K [m/s]	speed of sound, 303.15 K [m/s]	speed of sound, 313.15 K [m/s]
x1 = 0.0501	833.74	825.93	818	809.97	1301.8	1267.2	1233	1199.2
x1 = 0.1	850.14	842.12	833.98	825.71	1310.6	1275.9	1241.6	1207.7
x1 = 0.15	866.88	858.65	850.29	841.84	1319.6	1285	1250.5	1216.4
x1 = 0.1999	883.58	875.14	866.67	858.15	1328.7	1293.9	1259.3	1225.2
x1 = 0.2499	900.71	892.12	883.46	874.76	1337.3	1302.9	1268.4	1234.2
x1 = 0.3	917.89	909.1	900.31	891.55	1346.9	1312.1	1277.6	1243.3
x1 = 0.4	953.02	943.94	934.84	925.74	1365.5	1330.9	1296.4	1262.1
x1 = 0.45	970.58	961.33	952.08	942.85	1375.2	1340.7	1306.1	1271.7
x1 = 0.5	988.52	979.14	969.78	960.42	1385.7	1351	1316.3	1281.9
x1 = 0.5473	1005.5	995.94	986.39	976.86	1395.8	1361	1326.2	1291.7
x1 = 0.6999	1060.86	1050.92	1041.03	1031.18	1429.8	1394.6	1359.3	1324.3
x1 = 0.8	1097.24	1087.06	1076.9	1066.74	1452.2	1416.4	1380.7	1345.3
x1 = 0.8497	1115.11	1104.87	1094.66	1084.43	1463.1	1427.1	1391.3	1355.7
x1 = 0.8999	1133.5	1123.12	1112.74	1102.3	1474.2	1438.1	1401.9	1366.2
x1 = 1	1169.93	1159.33	1148.69	1138.01	1495.4	1458.8	1422.5	1386.5

O=Cc1ccco1 [2-furaldehyde] + CCO
Details	mass density, 283.15 K [kg/m3]	mass density, 293.15 K [kg/m3]	mass density, 303.15 K [kg/m3]	mass density, 313.15 K [kg/m3]	speed of sound, 283.15 K [m/s]	speed of sound, 293.15 K [m/s]	speed of sound, 303.15 K [m/s]	speed of sound, 313.15 K [m/s]
x1 = 0.0486	825.34	816.58	807.7	798.67	1221.8	1187.2	1152.6	1118.5
x1 = 0.0995	852.29	843.29	834.16	824.83	1245.2	1210.4	1175.6	1141.2
x1 = 0.15	877.44	868.21	858.83	849.37	1265.6	1230.5	1195.7	1161.2
x1 = 0.2	901.29	891.88	882.29	872.64	1284.6	1249.7	1214.8	1180.2
x1 = 0.25	924.5	914.91	905.24	895.34	1302.7	1267.7	1232.8	1198.2
x1 = 0.3001	946.91	937.18	927.3	917.42	1320.2	1285.2	1250.3	1215.7
x1 = 0.4501	1007.43	997.35	987.26	977.03	1367.1	1331.9	1296.9	1262.3
x1 = 0.6501	1076.56	1066.08	1055.65	1045.07	1421.3	1385.7	1350.4	1315.4
x1 = 0.7007	1091.79	1081.25	1070.76	1060.22	1433.5	1398	1362.5	1327.2
x1 = 0.7498	1105.77	1095.26	1084.63	1074.13	1444.7	1409.1	1373.4	1338
x1 = 0.8003	1119.65	1109.04	1098.47	1087.81	1455.7	1419.9	1384.2	1348.8
x1 = 0.8503	1132.81	1122.12	1111.5	1100.88	1466.4	1430.6	1394.6	1358.8
x1 = 0.9004	1145.37	1134.68	1124.08	1113.48	1476.6	1440.3	1404.2	1368.5
x1 = 0.9498	1157.85	1147.23	1136.49	1125.72	1486.3	1450.1	1413.8	1377.8
x1 = 1	1169.93	1159.33	1148.69	1138.01	1495.4	1458.8	1422.5	1386.5
